Laboratory results taken from patent US20120220581A1, “IMIDAZO[1,2-b]PYRIDAZINE DERIVATIVES AND THEIR USE AS PDE10 INHIBITORS” (Janssen-Cilag, S.A., priority 2009, published 2012).
Like-named read-outs stand apart in the source and are kept apart here.

Experiments:
PDE4D3 = PDE4D3 (Homo sapiens, UniProt Q08499); experiment: In vitro PDE selectivity assay (SPA), PDE4D3; format: biochemical; conditions: hPDE4D3; read-out: PDE 4D3 (expressed as pIC50) (converted)
Protocol: (§1) Rat recombinant PDE10A (rPDE10A2) was expressed in Sf9 cells using a recombinant rPDE10A baculovirus construct. Cells were harvested after 48 h of infection and the rPDE10A protein was purified by metal chelate chromatography on Ni-sepharose 6FF. Tested compounds were dissolved and diluted in 100% DMSO to a concentration 100 fold of the final concentration in the assay. Compound dilutions (0.4 μl) were added in 384 well plates to 20 μl of incubation buffer (50 mM Tris pH 7.8, 8.3 mM MgCl2, 1.7 mM EGTA). 10 μl of rPDE10A enzyme in incubation buffer was added and the reaction was started by addition of 10 μl substrate to a final concentration of 60 nM cAMP and 0.008 μCi ^3H-cAMP. The reaction was incubated for 60 minutes at room temperature. After incubation, the reaction was stopped with 20 μl of stop solution consisting of 17.8 mg/ml PDE SPA (scintillation proximity assay) beads. After sedimentation of the beads during 30 minutes the radioactivity was measured in a Perkin Elmer Topcount scintillation counter and results were expressed as cpm. For blanc values the enzyme was omitted from the reaction and replaced by incubation buffer. Control values were obtained by addition of a final concentration of 1% DMSO instead of compound. The same assay principle is applied for the measurement of the affinity of the compound for other members of the PDE family with appropriate modifications in incubation buffer, substrate concentration, incubation time and stop solution. An overview of the different protocols is presented in table A. A best fit curve is fitted by a minimum sum of squares method to the plot of % of control value substracted with blanc value versus compound concentration and the half maximal inhibitory concentration (IC50) value is derived from this curve.
(§2) The compounds of the invention are generally selective for PDE10 compared to other PDEs and there are a few that also have affinity for PDE1B1, 4D3 and 5A3.

[1] = system: apomorphine-induced stereotypy in rats; experiment: Apomorphine-induced stereotypy in rats (APO); format: in vivo; conditions: Rattus norvegicus, ≧: active in 30% of the animals at the indicated dose, ≦: active in 60%
Protocol: Apomorphine (1.0 mg/kg, i.v.)-induced stereotypy (compulsive sniffing, licking, chewing) was scored every 5 min over the first hour after injection of apomorphine, following a 1 hour interval pre-treatment with the test compound. The score system was: (3) pronounced, (2) moderate, (1) slight, and (0) absent.

[2] = target: T1, Rat recombinant PDE10A (rPDE10A2) (Rattus norvegicus, UniProt Q9QYJ6); experiment: In vitro assay PDE10A (SPA, 3H-cAMP); format: biochemical
T1 construct: inferred from the Ni metal chelate purification; made in house; host or cells: Sf9 insect cells (baculovirus)
T1 sequence (Q9QYJ6 1-794): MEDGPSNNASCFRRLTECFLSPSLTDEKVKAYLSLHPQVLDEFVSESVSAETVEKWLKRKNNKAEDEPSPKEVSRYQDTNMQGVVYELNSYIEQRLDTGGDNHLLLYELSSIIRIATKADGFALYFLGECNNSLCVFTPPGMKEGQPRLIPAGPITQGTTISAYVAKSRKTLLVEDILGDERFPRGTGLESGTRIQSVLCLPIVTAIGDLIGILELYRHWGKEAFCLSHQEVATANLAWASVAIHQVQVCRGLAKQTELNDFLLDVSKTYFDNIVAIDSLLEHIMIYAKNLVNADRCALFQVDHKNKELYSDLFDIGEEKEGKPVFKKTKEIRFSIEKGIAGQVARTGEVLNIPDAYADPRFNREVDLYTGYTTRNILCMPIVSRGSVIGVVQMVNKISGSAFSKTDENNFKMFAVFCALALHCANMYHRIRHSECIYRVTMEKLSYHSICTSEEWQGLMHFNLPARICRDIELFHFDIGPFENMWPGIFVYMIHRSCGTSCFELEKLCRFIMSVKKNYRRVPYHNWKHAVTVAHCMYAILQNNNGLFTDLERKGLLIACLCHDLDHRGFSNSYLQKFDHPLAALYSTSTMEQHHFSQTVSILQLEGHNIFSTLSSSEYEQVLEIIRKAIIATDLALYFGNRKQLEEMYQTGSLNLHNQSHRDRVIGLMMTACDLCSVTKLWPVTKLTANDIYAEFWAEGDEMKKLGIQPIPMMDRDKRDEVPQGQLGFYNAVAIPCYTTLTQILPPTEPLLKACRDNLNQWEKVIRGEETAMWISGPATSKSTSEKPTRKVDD
Summary of the method: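 Scintillation proximity read-out (cpm) of 3H-cAMP hydrolysis after 60 min at room temperature, with enzyme-free blanks and 1% DMSO controls. Enzyme was Sf9-expressed, Ni-sepharose-purified rat rPDE10A2; substrate 60 nM cAMP with tracer, buffer Tris pH 7.8 containing MgCl2 and EGTA.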

PDE10 = target: T2, PDE10 (Rattus norvegicus, UniProt Q9QYJ6); experiment: PDE10 occupancy ([3H]-MP-10, striatum); format: in vivo; conditions: rat, sc; for ED50: dose response, subcutaneous administration, read-out: PDE10 in vivo occupancy ED50 sc; for receptor occupancy at 10 mg/kg: single dose 10 mg/kg, subcutaneous, read-out: SD sc % occupancy at 10 mg/kg
T2 construct: from tissue; host or cells: rat brain sections, striatum (in vivo dosing, ex vivo autoradiography)
T2 sequence (Q9QYJ6 1-794): T1 sequence (Q9QYJ6 1-794)
Protocol: Dose-response or single dose experiments were performed to measure PDE10 occupancy 1 hour after subcutaneous (s.c.) or oral (p.o.) administration. Male Wistar rats (200 g) were treated by s.c. or p.o. administration of various PDE10 inhibitors. The PDE10 radioligand [^3H]-MP-10 (10 μCi/animal) was injected intravenously (i.v.) 30 minutes before sacrifice. Brains were immediately removed from the skull and rapidly frozen. Twenty μm-thick brain sections were cut using a cryostat-microtome, thaw-mounted on microscope slides and loaded in a β-imager to quantify PDE10 occupancy in the striatum.

[3] = target: other members of the PDE family (Homo sapiens, UniProt Q13946); experiment: In vitro PDE selectivity assay (SPA), other members of the PDE family (protocols in Table A); format: biochemical; conditions: hPDE7A1; read-out: PDE 7A (expressed as pIC50) (converted)
Summary of the method: (§3)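 Inhibition of each PDE isoform was measured by scintillation proximity assay with ³H-cyclic nucleotide substrate, using incubation buffer, substrate concentration, incubation time and stop solution adapted per isoform. Compounds were tested in dose-response against 1% DMSO controls and enzyme-free blanks. IC50 came from a least-squares fit of blank-subtracted % of control versus concentration.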

[4] = target: other members of the PDE family (Homo sapiens, UniProt Q9HCR9); experiment: as above; format: biochemical; conditions: hPDE11A4; read-out: PDE 11A4 (expressed as pIC50) (converted)
Summary of the method: as §3

[5] = target: other members of the PDE family (Homo sapiens, UniProt O00408); experiment: as above; format: biochemical; conditions: hPDE2A; read-out: PDE 2A (expressed as pIC50) (converted)
Summary of the method: as §3

[6] = target: other members of the PDE family (Homo sapiens, UniProt O76083); experiment: as above; format: biochemical; conditions: hPDE9A; read-out: PDE 9A (expressed as pIC50) (converted)
Summary of the method: as §3

[7] = target: other members of the PDE family (Homo sapiens, UniProt Q14432); experiment: as above; format: biochemical; conditions: hPDE3A; read-out: PDE 3A (expressed as pIC50) (converted)
Summary of the method: as §3

PDE5A3 = PDE5A3 (Homo sapiens, UniProt O76074); experiment: In vitro PDE selectivity assay (SPA), PDE5A3; format: biochemical; conditions: hPDE5A3; read-out: PDE 5A3 (expressed as pIC50) (converted)
Protocol: as §1, §2

[8] = dose at which 50% of the tested animals show the effect
[9] = Table 4 in vitro selectivity, read-out: PDE 10A2 (expressed as pIC50) (converted)
[10] = pIC50 corresponds to the −log IC50 expressed in mol/L, read-out: PDE10A2 pIC50 (converted)

Sequence of other members of the PDE family (Homo sapiens, UniProt Q13946) (Q13946 whole entry, canonical isoform): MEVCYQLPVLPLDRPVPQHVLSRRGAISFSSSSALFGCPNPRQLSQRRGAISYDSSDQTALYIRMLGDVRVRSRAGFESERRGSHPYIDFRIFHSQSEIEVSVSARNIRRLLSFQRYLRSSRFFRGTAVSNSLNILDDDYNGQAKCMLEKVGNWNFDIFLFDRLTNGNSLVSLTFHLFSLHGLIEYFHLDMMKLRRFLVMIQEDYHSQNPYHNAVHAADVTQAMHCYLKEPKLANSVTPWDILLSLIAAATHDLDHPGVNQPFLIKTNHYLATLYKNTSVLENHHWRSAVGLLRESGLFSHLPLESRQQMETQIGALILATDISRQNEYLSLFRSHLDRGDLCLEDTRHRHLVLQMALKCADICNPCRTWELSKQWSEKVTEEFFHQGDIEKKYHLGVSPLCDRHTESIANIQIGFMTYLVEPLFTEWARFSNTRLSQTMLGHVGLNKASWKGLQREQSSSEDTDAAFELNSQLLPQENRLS
Sequence of other members of the PDE family (Homo sapiens, UniProt Q9HCR9) (Q9HCR9 whole entry): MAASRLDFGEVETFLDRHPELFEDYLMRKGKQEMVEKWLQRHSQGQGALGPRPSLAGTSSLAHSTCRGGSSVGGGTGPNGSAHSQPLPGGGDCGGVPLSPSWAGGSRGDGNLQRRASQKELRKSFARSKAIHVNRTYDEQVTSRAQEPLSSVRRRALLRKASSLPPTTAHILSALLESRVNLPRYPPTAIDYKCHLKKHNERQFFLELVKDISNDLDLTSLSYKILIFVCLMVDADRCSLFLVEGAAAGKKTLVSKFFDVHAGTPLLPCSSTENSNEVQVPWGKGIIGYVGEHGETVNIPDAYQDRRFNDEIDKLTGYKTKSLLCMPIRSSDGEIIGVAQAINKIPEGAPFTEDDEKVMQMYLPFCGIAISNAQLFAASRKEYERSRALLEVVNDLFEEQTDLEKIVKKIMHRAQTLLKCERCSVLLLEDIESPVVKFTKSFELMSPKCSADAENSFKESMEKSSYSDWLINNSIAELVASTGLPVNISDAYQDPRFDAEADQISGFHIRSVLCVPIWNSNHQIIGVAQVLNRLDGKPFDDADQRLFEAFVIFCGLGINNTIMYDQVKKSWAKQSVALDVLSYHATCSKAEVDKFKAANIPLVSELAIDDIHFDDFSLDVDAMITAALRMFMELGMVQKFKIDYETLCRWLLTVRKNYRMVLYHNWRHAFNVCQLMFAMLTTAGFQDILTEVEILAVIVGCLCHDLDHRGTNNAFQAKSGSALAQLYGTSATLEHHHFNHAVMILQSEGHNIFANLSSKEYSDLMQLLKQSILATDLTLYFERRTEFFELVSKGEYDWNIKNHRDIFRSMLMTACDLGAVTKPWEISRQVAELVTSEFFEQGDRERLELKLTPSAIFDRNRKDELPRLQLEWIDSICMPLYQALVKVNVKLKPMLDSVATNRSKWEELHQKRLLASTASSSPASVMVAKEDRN
Sequence of other members of the PDE family (Homo sapiens, UniProt Q14432) (Q14432 whole entry): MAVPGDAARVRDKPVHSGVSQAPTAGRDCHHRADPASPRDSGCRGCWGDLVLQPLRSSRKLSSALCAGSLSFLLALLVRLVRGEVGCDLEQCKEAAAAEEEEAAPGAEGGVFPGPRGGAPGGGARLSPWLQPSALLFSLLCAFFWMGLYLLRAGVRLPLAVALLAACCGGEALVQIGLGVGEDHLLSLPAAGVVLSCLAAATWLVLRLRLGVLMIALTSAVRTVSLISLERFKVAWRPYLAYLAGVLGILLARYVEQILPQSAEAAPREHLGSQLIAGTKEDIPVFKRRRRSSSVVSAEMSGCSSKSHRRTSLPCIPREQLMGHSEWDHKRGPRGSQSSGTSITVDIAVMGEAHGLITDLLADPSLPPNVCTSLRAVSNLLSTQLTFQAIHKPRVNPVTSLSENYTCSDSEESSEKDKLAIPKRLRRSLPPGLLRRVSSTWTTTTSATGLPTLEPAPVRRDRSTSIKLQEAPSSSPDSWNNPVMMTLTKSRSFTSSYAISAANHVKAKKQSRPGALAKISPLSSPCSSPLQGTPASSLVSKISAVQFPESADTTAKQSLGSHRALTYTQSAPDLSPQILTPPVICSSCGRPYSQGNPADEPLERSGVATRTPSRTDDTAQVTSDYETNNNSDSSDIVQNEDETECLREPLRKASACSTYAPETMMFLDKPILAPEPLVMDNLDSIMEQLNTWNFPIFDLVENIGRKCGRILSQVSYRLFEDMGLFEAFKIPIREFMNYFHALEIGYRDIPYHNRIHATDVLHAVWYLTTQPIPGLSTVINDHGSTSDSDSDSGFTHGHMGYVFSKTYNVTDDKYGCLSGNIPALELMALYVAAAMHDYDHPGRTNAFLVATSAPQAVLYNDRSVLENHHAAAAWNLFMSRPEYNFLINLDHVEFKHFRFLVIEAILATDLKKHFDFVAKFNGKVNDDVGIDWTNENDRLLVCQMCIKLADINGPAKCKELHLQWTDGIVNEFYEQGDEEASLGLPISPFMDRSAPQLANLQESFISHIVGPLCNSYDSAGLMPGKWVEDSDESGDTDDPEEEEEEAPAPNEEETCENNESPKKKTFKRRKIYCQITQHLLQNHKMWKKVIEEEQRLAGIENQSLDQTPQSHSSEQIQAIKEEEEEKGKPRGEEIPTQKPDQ
Sequence of other members of the PDE family (Homo sapiens, UniProt O76083) (O76083 whole entry): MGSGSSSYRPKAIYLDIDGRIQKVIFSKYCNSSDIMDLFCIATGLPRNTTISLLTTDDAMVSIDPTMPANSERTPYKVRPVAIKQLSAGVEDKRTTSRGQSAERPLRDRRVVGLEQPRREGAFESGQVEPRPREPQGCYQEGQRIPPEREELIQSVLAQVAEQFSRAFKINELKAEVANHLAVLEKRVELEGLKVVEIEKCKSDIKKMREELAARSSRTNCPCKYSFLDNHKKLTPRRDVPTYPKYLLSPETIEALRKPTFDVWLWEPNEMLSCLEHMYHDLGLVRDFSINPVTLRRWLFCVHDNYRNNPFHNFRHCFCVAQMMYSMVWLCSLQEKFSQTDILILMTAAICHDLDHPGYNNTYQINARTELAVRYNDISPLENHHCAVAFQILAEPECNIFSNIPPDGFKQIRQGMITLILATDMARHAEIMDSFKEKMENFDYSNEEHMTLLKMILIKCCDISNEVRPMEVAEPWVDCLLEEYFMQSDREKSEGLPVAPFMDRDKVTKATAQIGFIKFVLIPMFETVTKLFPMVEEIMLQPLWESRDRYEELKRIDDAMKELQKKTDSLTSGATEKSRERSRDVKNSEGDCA
Sequence of PDE4D3 (Q08499 1-673 isoform Q08499-2): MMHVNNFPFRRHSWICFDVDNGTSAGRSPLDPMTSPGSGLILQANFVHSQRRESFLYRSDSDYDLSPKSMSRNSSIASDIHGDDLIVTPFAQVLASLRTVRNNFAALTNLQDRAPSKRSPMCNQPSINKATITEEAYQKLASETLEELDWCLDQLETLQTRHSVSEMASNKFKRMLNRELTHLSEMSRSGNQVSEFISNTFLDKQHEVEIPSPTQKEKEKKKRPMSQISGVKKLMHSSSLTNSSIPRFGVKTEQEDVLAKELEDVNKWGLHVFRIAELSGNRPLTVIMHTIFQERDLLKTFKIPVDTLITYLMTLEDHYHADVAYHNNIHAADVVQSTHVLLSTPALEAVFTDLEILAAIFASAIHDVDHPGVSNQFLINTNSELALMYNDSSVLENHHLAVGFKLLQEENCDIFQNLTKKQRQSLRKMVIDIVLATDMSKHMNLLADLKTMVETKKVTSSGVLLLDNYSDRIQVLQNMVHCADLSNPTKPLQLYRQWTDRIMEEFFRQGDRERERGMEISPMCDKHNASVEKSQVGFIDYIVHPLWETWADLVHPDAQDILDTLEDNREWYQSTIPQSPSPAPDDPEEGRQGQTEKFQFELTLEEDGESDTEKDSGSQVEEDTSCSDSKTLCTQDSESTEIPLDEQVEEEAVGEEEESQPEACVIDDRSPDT
Sequence of other members of the PDE family (Homo sapiens, UniProt O00408) (O00408 whole entry): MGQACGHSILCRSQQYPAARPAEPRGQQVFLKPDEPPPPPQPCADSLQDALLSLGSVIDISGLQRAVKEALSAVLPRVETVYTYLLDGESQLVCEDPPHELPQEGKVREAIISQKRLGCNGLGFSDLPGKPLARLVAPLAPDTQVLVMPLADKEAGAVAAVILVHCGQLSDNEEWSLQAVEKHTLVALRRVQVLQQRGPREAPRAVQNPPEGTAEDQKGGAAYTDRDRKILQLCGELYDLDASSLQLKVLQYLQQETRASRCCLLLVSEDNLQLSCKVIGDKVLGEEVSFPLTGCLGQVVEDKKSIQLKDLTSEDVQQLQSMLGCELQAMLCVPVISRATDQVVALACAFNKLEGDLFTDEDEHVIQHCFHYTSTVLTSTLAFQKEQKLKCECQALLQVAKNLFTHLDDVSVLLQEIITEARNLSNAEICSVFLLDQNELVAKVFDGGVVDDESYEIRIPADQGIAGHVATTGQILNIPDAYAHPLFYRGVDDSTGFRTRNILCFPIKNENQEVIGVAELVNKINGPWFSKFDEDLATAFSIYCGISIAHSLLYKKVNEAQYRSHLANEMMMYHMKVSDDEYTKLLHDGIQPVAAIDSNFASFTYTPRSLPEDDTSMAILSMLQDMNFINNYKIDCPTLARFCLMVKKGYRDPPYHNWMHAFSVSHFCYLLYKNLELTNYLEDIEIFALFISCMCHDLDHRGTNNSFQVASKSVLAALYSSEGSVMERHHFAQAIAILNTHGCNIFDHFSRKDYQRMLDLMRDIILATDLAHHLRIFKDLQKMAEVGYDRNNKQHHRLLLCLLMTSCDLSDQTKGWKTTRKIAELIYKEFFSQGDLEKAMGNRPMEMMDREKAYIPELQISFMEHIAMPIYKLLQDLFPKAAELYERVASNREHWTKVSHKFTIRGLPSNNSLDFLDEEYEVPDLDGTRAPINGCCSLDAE

| IC50 (PDE4D3) | IC50 [2, 9] | IC50 [2, 10] | ED50 (PDE10) | IC50 [3] | IC50 [4] | IC50 [5] | IC50 [6] | IC50 [7] | IC50 (PDE5A3) | receptor occupancy at 10 mg/kg (PDE10) | SMILES | ED50 [1, 8] | ED50 ([1]; po, * compound not soluble, tested orally as a suspension) |
| --- | --- | --- | --- | --- | --- | --- | --- | --- | --- | --- | --- | --- | --- |
| 13.2 µM | 83.2 nM | 83.2 nM | 1.1 mg/kg | 25.7 µM | 30.2 µM | 26.9 µM | > 100 µM | 30.2 µM | 13.8 µM |  | CCc1ccc(-c2c(C)nc3c(N4CCOCC4)ccnn23)cn1 [compound 28, 3-(6-ethyl-3-pyridinyl)-2-methyl-8-(4-morpholinyl)-imidazo[1,2-b]pyridazine] | 1.2 mg/kg |  |
| > 10 µM | 95.5 nM | 95.5 nM |  | > 10 µM | > 10 µM | > 10 µM | > 10 µM | > 10 µM | 2.4 µM |  | COCCn1cc(-c2c(C)nc3c(N4CCOCC4)cc(C)nn23)cn1 [compound 133, 3-[1-(2-methoxyethyl)-1H-pyrazol-4-yl]-2,6-dimethyl-8-(4-morpholinyl)-imidazo[1,2-b]pyridazine] | 3.1 mg/kg |  |
| 5.5 µM | 105 nM | 105 nM |  | 4.9 µM | 5.37 µM | 8.13 µM | > 10 µM | > 10 µM | 0.589 µM |  | COCCn1cc(-c2c(C)nc3c(-c4ccncc4)cc(C)nn23)cn1 [compound 134, 3-[1-(2-methoxyethyl)-1H-pyrazol-4-yl]-2,6-dimethyl-8-(4-pyridinyl)-imidazo[1,2-b]pyridazine] | 5 mg/kg |  |
| > 10 µM | 18.2 nM | 18.2 nM |  | > 10 µM | 5.89 µM | > 10 µM | > 10 µM | 7.41 µM | 2.57 µM |  | Cc1nc2c(-c3ccncc3)ccnn2c1-c1cnn(CC(F)(F)F)c1 [compound 135, 2-methyl-8-(4-pyridinyl)-3-[1-(2,2,2-trifluoroethyl)-1H-pyrazol-4-yl]-imidazo[1,2-b]pyridazine] |  | 3.1 mg/kg |
| 5.13 µM | 17.4 nM | 17.4 nM |  | 5.89 µM | 1.95 µM | 3.98 µM | > 10 µM | 1.45 µM | 0.646 µM |  | COC(C)(C)Cn1cc(-c2c(C3CC3)nc3c(-c4ccncc4)ccnn23)cn1 [compound 143, 2-cyclopropyl-3-[1-(2-methoxy-2-methylpropyl)-1H-pyrazol-4-yl]-8-(4-pyridinyl)-imidazo[1,2-b]pyridazine] | 1.2 mg/kg |  |

The next lines start with the compound.

| SMILES | IC50 (PDE4D3) | IC50 [2, 9] | IC50 [2, 10] | ED50 (PDE10) | IC50 [3] | IC50 [4] | IC50 [5] | IC50 [6] | IC50 [7] | IC50 (PDE5A3) | receptor occupancy at 10 mg/kg (PDE10) | ED50 [1, 8] | ED50 ([1]; po, * compound not soluble, tested orally as a suspension) |
| --- | --- | --- | --- | --- | --- | --- | --- | --- | --- | --- | --- | --- | --- |
| COC(C)(C)Cc1ccc(-c2c(C)nc3c(N4CCOCC4)ccnn23)cn1 [compound 3, 3-[6-(2-methoxy-2-methylpropyl)-3-pyridinyl]-2-methyl-8-(4-morpholinyl)-imidazo[1,2-b]pyridazine] | > 10 µM | 26.3 nM | 26.3 nM | 2 mg/kg | > 10 µM | > 10 µM | > 10 µM | > 10 µM | > 10 µM | 7.94 µM |  | 0.8 mg/kg |  |
| COCCOc1ccc(-c2c(C)nc3c(N4CCOCC4)ccnn23)cn1 [compound 16, 3-[6-(2-methoxyethoxy)-3-pyridinyl]-2-methyl-8-(4-morpholinyl)-imidazo[1,2-b]pyridazine] | > 10 µM | 120 nM | 120 nM |  | > 10 µM | > 10 µM | > 10 µM | > 10 µM | > 10 µM | > 10 µM | 52% | 3.1 mg/kg |  |
| Cc1nc2c(N3CCOCC3)ccnn2c1-c1ccc(N2CCOCC2)nc1 [compound 19, 2-methyl-8-(4-morpholinyl)-3-[6-(4-morpholinyl)-3-pyridinyl]-imidazo[1,2-b]pyridazine] | > 10 µM | 107 nM | 107 nM |  | > 10 µM | > 10 µM | > 10 µM | > 10 µM | > 10 µM | > 10 µM | 57% | 5 mg/kg |  |
| COCCc1ccc(-c2c(C3CC3)nc3c(N4CCOCC4)ccnn23)cn1 [compound 22, 2-cyclopropyl-3-[6-(2-methoxyethyl)-3-pyridinyl]-8-(4-morpholinyl)-imidazo[1,2-b]pyridazine] | 2.75 µM | 56.2 nM | 56.2 nM | 0.94 mg/kg | 28.2 µM | 6.76 µM | 5.89 µM | > 50.1 µM | > 50.1 µM | 3.47 µM |  | 0.5 mg/kg |  |
